Source: ChEMBL document CHEMBL5584250, “5-HT6 receptor neutral antagonists protect astrocytes: A lesson from 2-phenylpyrrole derivatives” (Eur J Med Chem, 2024)

Experiments:
[1] = biological target: T1, 5-hydroxytryptamine receptor 1A (Homo sapiens, UniProt P08908); assay: Displacement of [3H]-8-OH-DPAT from human 5-HT1A receptor extracted from HEK293 cell membrane by microbeta plate reader analysis; type: cell membranes
T1 sequence (P08908 whole entry): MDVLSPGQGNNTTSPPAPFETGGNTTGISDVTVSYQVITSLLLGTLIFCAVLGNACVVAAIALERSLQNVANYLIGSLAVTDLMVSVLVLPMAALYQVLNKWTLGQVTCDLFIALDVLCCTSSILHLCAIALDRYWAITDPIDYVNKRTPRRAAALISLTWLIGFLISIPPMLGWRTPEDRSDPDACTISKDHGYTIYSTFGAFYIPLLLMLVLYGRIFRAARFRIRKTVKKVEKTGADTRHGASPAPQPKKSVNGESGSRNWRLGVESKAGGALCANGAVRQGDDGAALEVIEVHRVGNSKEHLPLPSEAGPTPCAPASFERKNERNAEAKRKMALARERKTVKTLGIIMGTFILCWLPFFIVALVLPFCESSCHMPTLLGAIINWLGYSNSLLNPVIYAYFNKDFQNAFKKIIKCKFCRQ

[2] = biological target: 5-hydroxytryptamine receptor 7 (Homo sapiens, UniProt P34969); assay: Displacement of [3H]-5-CT from human 5-HT7 receptor extracted from HEK293 cell membrane by microbeta plate reader analysis; type: cell membranes
D(2) dopamine receptor = D(2) dopamine receptor (Homo sapiens, UniProt P14416); assay: Displacement of [3H]-raclopride from human D2L receptor extracted from HEK293 cell membrane by microbeta plate reader analysis; type: cell membranes
[3] = biological target: 5-hydroxytryptamine receptor 2A (Homo sapiens, UniProt P28223); assay: Displacement of [3H]-ketanserin from human 5-HT2A receptor extracted from CHO-K1 cell membrane by microbeta plate reader analysis; type: cell membranes
[4] = Drug metabolism in rat liver microsomes by UPLC-MS analysis; type: ADME, Microsome
in vitro [5] = conditions: rat, microsomes
[6] = Cytotoxicity against human astrocytes incubated for 3 hrs by MTT assay; type: toxicity, cell-based, Astrocyte
[7] = Cytotoxicity against human SH-SY5Y cells incubated for 3 hrs by MTT assay; type: toxicity, cell-based
[8] = Cytotoxicity against mouse C8D1A cells incubated for 3 hrs by MTT assay; type: toxicity, cell-based, C8-D1A
[9] = biological target: 5-hydroxytryptamine receptor 6 (Homo sapiens, UniProt P50406)
Description: Displacement of [3H]-LSD from human 5-HT6 receptor extracted from HEK293 cell membrane by microbeta plate reader analysis

[10] = Cytotoxicity against rat PC12 cells incubated for 3 hrs by MTT assay; type: toxicity, cell-based, PC-12
[11] = biological target: hERG (KCNH2) potassium channel (Homo sapiens, UniProt Q12809); assay: Inhibition of hERG potassium channel at 1 uM relative to control; type: toxicity
CYP3A4 = CYP3A4 (Homo sapiens, UniProt P08684); assay: Inhibition of CYP3A4 (unknown origin) at 10 uM relative to control; type: ADME
in vitro [12] = conditions: rat, microsomes; remark: listed apart in the source
[13] = Drug metabolism in rat liver microsomes assessed as hydroxylation mediated metabolite formation by UPLC-MS analysis; type: ADME, Microsome

5-hydroxytryptamine receptor 6, sequence (P50406 whole entry): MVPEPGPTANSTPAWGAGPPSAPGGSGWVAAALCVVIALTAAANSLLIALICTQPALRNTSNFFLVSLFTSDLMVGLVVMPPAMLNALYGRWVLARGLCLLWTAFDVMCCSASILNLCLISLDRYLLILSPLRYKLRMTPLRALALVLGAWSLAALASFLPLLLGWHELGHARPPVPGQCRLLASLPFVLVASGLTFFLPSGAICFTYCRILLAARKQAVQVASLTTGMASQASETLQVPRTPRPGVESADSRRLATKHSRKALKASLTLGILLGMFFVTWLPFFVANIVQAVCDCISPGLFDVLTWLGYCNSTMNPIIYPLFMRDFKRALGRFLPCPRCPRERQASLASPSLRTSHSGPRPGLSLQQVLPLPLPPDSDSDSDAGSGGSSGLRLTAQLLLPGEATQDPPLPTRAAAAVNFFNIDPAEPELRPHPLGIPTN
5-hydroxytryptamine receptor 7, sequence (P34969 whole entry): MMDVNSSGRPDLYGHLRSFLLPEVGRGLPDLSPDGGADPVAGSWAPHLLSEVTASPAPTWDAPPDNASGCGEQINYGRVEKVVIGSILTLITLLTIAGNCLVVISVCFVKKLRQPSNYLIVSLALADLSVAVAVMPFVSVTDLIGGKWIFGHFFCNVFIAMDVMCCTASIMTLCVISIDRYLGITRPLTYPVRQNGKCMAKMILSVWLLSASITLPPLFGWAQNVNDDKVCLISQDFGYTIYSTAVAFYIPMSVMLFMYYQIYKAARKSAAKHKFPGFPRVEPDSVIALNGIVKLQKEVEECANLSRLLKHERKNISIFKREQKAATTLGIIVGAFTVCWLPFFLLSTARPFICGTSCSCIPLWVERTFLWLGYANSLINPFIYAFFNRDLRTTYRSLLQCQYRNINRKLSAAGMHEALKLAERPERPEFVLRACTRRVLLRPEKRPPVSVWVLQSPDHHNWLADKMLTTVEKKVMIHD
D(2) dopamine receptor, sequence (P14416 whole entry): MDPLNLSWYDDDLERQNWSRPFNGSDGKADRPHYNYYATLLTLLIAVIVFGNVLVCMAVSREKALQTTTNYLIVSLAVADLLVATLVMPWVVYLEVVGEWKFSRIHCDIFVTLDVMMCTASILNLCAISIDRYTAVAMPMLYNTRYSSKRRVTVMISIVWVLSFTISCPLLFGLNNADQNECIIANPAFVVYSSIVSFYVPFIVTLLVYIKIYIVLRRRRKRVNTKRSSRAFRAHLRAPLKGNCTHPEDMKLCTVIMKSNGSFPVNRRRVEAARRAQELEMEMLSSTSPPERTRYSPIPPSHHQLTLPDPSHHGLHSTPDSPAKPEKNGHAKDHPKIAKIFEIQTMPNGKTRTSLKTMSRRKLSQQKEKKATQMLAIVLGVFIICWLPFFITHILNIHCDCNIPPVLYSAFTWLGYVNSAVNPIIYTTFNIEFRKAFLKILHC
5-hydroxytryptamine receptor 2A, sequence (P28223 whole entry): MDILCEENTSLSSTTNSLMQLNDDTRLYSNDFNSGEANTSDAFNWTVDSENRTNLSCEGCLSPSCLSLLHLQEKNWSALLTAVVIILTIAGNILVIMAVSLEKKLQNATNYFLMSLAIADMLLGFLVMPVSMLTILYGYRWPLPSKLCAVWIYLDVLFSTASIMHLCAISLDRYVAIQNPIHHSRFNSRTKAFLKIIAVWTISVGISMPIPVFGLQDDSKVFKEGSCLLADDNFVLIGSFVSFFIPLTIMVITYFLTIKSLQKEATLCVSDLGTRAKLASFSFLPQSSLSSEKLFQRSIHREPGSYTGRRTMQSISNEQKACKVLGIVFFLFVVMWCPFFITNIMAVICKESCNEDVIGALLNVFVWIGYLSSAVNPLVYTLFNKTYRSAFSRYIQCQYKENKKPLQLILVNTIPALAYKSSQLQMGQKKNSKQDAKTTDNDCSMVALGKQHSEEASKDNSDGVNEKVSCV
CYP3A4, sequence (P08684 whole entry): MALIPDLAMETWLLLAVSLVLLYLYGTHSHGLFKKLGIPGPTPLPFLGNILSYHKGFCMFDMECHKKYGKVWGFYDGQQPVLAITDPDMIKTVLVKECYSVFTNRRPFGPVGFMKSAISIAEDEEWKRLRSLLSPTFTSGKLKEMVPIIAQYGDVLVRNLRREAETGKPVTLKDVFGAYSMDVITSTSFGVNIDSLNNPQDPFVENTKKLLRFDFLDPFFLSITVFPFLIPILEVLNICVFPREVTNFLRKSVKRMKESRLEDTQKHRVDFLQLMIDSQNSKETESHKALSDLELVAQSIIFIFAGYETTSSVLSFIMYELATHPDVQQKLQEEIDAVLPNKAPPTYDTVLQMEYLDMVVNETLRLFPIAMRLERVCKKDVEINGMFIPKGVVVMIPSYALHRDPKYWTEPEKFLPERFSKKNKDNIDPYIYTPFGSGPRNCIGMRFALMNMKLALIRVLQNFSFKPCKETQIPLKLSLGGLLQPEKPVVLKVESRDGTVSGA
hERG (KCNH2) potassium channel, sequence (Q12809 whole entry): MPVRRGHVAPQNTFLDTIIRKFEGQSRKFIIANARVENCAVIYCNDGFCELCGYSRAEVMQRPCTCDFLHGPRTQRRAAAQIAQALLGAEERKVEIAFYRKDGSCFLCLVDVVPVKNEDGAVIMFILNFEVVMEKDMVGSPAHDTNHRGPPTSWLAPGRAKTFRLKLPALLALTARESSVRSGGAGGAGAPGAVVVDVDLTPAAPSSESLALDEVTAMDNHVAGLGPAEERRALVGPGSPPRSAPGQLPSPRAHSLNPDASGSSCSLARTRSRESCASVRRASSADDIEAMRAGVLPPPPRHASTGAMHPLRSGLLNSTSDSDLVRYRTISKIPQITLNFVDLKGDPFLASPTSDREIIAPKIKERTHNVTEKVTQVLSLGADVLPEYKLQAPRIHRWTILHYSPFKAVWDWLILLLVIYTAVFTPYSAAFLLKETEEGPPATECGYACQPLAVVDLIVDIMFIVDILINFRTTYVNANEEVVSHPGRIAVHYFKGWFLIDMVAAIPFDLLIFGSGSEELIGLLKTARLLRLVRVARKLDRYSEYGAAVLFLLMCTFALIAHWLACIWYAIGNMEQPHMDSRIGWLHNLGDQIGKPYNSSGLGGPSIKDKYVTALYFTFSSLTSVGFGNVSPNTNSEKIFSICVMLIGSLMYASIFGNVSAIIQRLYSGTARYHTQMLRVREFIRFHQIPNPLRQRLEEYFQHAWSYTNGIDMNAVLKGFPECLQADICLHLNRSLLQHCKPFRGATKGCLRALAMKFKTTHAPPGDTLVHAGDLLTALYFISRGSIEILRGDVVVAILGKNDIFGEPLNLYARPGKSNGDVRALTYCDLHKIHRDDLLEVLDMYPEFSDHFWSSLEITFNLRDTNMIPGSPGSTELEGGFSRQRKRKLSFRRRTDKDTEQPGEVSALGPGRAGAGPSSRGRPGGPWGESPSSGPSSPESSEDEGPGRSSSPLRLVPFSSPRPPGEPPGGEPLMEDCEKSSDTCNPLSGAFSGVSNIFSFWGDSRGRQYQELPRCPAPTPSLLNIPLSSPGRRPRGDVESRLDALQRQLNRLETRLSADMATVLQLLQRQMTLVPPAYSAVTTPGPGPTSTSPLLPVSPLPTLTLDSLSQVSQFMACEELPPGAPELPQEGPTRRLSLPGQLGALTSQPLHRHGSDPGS

| Compound | Ki [1] | Ki [2] | Ki (D(2) dopamine receptor) | Ki [3] | Drug metabolism [4] | half-life at 1 h, 10 µM (in vitro [5]) | Ki [9] | inhibition at 10 µM (CYP3A4) | microsomal CLint at 1 h, 10 µM (in vitro [12]) | Drug metabolism [13] | IC50 at 3 h [6] | IC50 at 3 h [7] | IC50 at 3 h [8] | IC50 at 3 h [10] | inhibition at 1 µM [11] |
| --- | --- | --- | --- | --- | --- | --- | --- | --- | --- | --- | --- | --- | --- | --- | --- |
| O=C(NC1CCNCC1)c1ccn(S(=O)(=O)c2cccc(Cl)c2)c1-c1cccc(F)c1 | 68.6 µM | 84 µM | 7.69 µM | 10.6 µM | – | – | – | – | – | – | – | – | – | – | – |
| O=S(=O)(c1cccc(N2CCNCC2)c1)n1cccc1-c1cccc(F)c1 | 1.84 µM | 11.5 µM | 4.33 µM | 2.51 µM | Metabolite_Notdetected | 49.3 min | 0.001 µM | 94% | 32.4 µL/min/mg | – | 39.3 µM | 18.5 µM | 37.4 µM | 25.6 µM | 8% |
| O=S(=O)(c1ccccc1)n1cccc1-c1cccc(N2CCNCC2)c1 | 2.47 µM | 1.32 µM | 2.7 µM | 15.9 µM | – | 15.3 min | 0.027 µM | – | 109 µL/min/mg | Metabolite_Detected | – | – | – | – | – |
| O=S(=O)(c1cccc(NC2CCNCC2)c1)n1cccc1-c1ccccc1 | 40.6 µM | 1.99 µM | 10.8 µM | 1.54 µM | – | 101 min | 0.004 µM | – | 20.6 µL/min/mg | Metabolite_Detected | – | – | – | – | – |

The next molecules have a lower Ki [1] than those just listed; values first:

| Ki [1] | Ki [2] | Ki (D(2) dopamine receptor) | Ki [3] | Drug metabolism [4] | half-life at 1 h, 10 µM (in vitro [5]) | Ki [9] | inhibition at 10 µM (CYP3A4) | microsomal CLint at 1 h, 10 µM (in vitro [12]) | Drug metabolism [13] | Compound | IC50 at 3 h [6] | IC50 at 3 h [7] | IC50 at 3 h [8] | IC50 at 3 h [10] | inhibition at 1 µM [11] |
| --- | --- | --- | --- | --- | --- | --- | --- | --- | --- | --- | --- | --- | --- | --- | --- |
| 0.916 µM | 11.6 µM | 5.2 µM | 0.655 µM | Metabolite_Notdetected | 36.7 min | 0.001 µM | – | 56.7 µL/min/mg | – | COc1cccc(-c2cccn2S(=O)(=O)c2cccc(N3CCNCC3)c2)c1 | – | – | – | – | – |
| 0.755 µM | 12.3 µM | 2.17 µM | 0.412 µM | – | 83.6 min | 0.001 µM | – | 24.9 µL/min/mg | Metabolite_Detected | O=S(=O)(c1cccc(N2CCNCC2)c1)n1cccc1-c1ccccc1 | – | – | – | – | – |
